The text below walks through data of patent EP4570805A1, “TRICYCLIC COMPOUNDS AND MEDICAL USE THEREOF” (Chia Tai Tianqing Pharmaceutical Group Co., Ltd., priority 2022, dated 2024).

Where two headings read alike, the source gives them in different places.

Data set [1] is described as follows: In vitro liver microsomal stability, mouse. The conditions noted are these: mouse liver microsome 0.5 mg/mL, 37 °C. On the technique in general: Microsomes from liver hold many membrane-bound enzymes, among them those of drug oxidation.
Description: (§1) Liver microsome incubation samples (species: human, monkey, rat, and mouse) were prepared by mixing a PBS buffer (pH 7.4), a liver microsome solution (0.5 mg/mL), a test compound, and an NADPH + MgCl2 solution and incubated at 37 °C and 300 rpm for 1 h. Zero-hour samples were prepared by mixing a PBS buffer (pH 7.4), a liver microsome solution (0.5 mg/mL), and a test compound. An acetonitrile solution containing an internal standard was added to the samples, and the supernatants were prepared by protein precipitation, diluted, and then assayed by LC/MS/MS.
Data set [2] deals with Capan-1 cells. As to the kind of experiment: Inhibitory activity for Capan-1 cell proliferation (CCK-8). In kind it is cell-based. The conditions noted are these: Homo sapiens, CAPAN-1, 120 h, 5 days incubation. The method in brief:
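Capan-1 cells were seeded at 1.5 × 10^4 cells/mL and exposed to compound for 5 days. CCK-8 was added for 4 h, with absorbance read at 450 nm. IC50 came from a four-parameter dose-response fit.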

Data set [3] is described as follows: In vivo pharmacokinetics in mice. The conditions noted are these: mouse, in vivo, po, ICR mice, IG, 10 mg/kg; for MRT last: read-out: MRT(0-t). As for the experimental part: ICR mice weighing 20 g to 24 g were randomized into groups with 9 mice in each group after 3 to 5 days of acclimatization, and intragastric administration of the experimental compounds was performed at a dose of 10 mg/kg.
The test animals (ICR mice) were fasted for 12 h before administration and fed 4 h after administration, and were given free access to water before, after, and during the experiment.
After intragastric administration, about 0.1 mL of blood was collected via the orbital sinus at 0.25 h (15 min), 0.5 h (30 min), 1 h, 2 h, 4 h, 6 h, 8 h, and 10 h (each mouse was subjected to blood collection at 3 to 4 time points, with 3 mice per time point). Following anticoagulation with EDTA-K2, the blood samples were transferred to a centrifuge within 30 min and then centrifuged at 4000 rpm for 10 min at 4 °C to separate the plasma. All the plasma samples were collected and immediately stored at -20 °C for testing.
20 µL of the plasma sample to be tested and the standard curve sample were pipetted, and 400 µL of acetonitrile solution containing an internal standard (20 ng/mL) was added. The mixture was shaken and mixed well for 10 min, and centrifuged at 13000 rpm for 10 min. 50 µL of the supernatant was taken and diluted with 100 µL of ultrapure water. After being mixed well, 0.5 µL of the resulting sample was subjected to LC/MS/MS, and a chromatogram was recorded.
Oral exposure of the compounds of the present disclosure was evaluated by in vivo pharmacokinetic experiments in mice.

For data set [4] the following is noted: microsomes, 1 h.
Description: as §1
Data set [5] has as its target T1, His-KRAS G12D (1-169) (Homo sapiens, UniProt P01116, G12D).
T1 construct: His-KRAS G12D (1-169)
As to the kind of experiment: Nucleotide exchange assay (SOS1cat-mediated, HTRF). In kind it is biochemical. The conditions noted are these: room temperature, read-out: Nucleotide exchange inhibitory activity IC50. As for the experimental part:
• 1. Reagents: His-KRAS G12D (1-169); SOS1^cat (564-1049); GDP (purchased from Sigma); Anti-6HIS-Cryptate (purchased from Cisbio); EDA-GTP-DY-647P1 (purchased from Jena Bioscience) • 2. Buffer preparation: • 1) assay buffer: HEPES pH 7.4, NaCl, MgCl2, DTT, BSA, and Igepal; • 2) KRAS G12D working solution: A KRAS G12D working solution containing 100 nM His-KRAS G12D and 2 nM Anti-6HIS-Cryptate was prepared using the assay buffer; • 3) SOS1^cat working solution: An SOS1^cat working solution containing 20 nM SOS1^cat and 200 nM EDA-GTP-DY-647P1 was prepared using the assay buffer; • 4) blank control working solution: A blank control solution containing 2 nM Anti-6HIS-Cryptate was prepared using the assay buffer. • 3. Testing procedure: The entire experimental process was completed at room temperature. Using a black clear-bottom 384-well plate, 5 µL of KRAS G12D working solution was added to each well for the experimental and negative groups, while 5 µL of blank control working solution was added to each well for the blank group. The plate was incubated at room temperature for 10 min. Then, the compounds (at an initial concentration of 100 µM, 8 concentration gradients by 1:2 serial dilution) were added to the experimental groups using an ultra microsyringe and incubated at room temperature for 30 min. Finally, 5 µL of SOS1^cat working solution was added to each well, and after incubation at room temperature for 15 min, signal values were detected at 665 nm/620 nm using a PerkinElmer Envision HTS multi-label plate reader. The inhibition rate was calculated by the following formula: inhibition rate (%) = (mean value of negative control group - mean value of experimental group)/(mean value of negative control group - mean value of blank group) × 100%. The curves were fitted using the four-parameter logistic model with the logarithm of the compound concentration as the abscissa and the inhibition rate as the ordinate, and IC 50 values were calculated.
(In TR-FRET formats the signal depends on donor and acceptor labels being close together.)

In data set [6] the test system is AsPc-1 cells. Briefly: Inhibitory activity for AsPc-1 cell proliferation (CCK-8). In kind it is cell-based, human. As to conditions: Homo sapiens, ASPC1, 72 h incubation. As for the experimental part: AsPc-1 cells in a well-growing state were collected into a centrifuge tube, adjusted to a cell density of 3 × 10^4 cells/mL, and inoculated onto a 96-well plate (100 µL/well). The compounds were added using a nanoliter pipettor such that the final concentrations of the compounds were 5000 nM-0.31 nM (the addition was performed in duplicate). Meanwhile, a control was set. After 72 h of incubation in the cell incubator, the assay reagent CCK-8 (manufacturer: Dojindo Laboratories; 10 µL/well) was added. After 3 h of incubation in the cell incubator, the absorbance was measured at 450 nm on a PerkinElmer Envision microplate reader. A four-parameter analysis was performed, a dose-response curve was fitted, and IC50 was calculated.

T1 sequence (P01116 1-169 isoform P01116-2 G12D): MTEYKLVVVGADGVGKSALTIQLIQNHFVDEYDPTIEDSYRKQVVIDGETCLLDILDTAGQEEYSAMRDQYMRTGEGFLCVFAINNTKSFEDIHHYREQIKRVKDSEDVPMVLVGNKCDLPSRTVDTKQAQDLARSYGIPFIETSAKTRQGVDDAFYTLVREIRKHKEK

Consider `C#Cc1c(F)ccc2cc(O)cc(-c3nc4c5c(nc(OCCCN(C)C)nc5c3F)N(C(C)c3cccnc3N)[C@@H](C)CO4)c12` (single isomer, unassigned) [Example 79], for which the “The remaining amount % (T = 60 min) (0.5 mg/mL) Mouse liver microsome” value (shortened to “The remaining amount % (T = 60 min)”) in data set [1] is given as over 60%. Further, the IC50 in data set [2] is under 100 nM. Regarding `Cc1c(F)cc2[nH]ncc2c1-c1nc2c3c(nc(OC[C@@]45CCCN4C[C@H](F)C5)nc3c1F)N(C(C)c1cccnc1N)[C@@H](C)CO2` (single isomer, unassigned) [Example 85], the concentration for half-maximal inhibition (IC50) in data set [2] was under 100 nM. Further, in data set [3], the AUC(0-inf) worked out at 214 ng·h/mL, the AUC(0-t) was determined as 197 ng·h/mL, the highest level (Cmax) was 50.2 ng/mL and the time to peak (Tmax) amounted to 0.25 h. In addition, in data set [3], the half-life was 2.77 h and the MRT last amounted to 3.4 h. Compound `C#Cc1c(F)ccc2cccc(-c3nc4c5c(nc(OC[C@@H]6CCCN6C)nc5c3F)N(C(C)c3cccnc3N)[C@@H](C)CO4)c12` (single isomer, unassigned) [Example 87] gave a concentration for half-maximal inhibition (IC50) in data set [2] of under 100 nM. Further, in data set [3], the area under the curve AUC(0-inf) was 309 ng·h/mL, the exposure AUC(0-t) worked out at 266 ng·h/mL, the peak level (Cmax) was 49 ng/mL and the Tmax was found to be 0.25 h. Also, in data set [3], the half-life is 3.66 h and the MRT last was 4.93 h. For `C#Cc1c(F)ccc2cc(O)cc(-c3nc4c5c(nc(OCCN(C)C)nc5c3F)N(C(C)c3cccnc3N)[C@@H](C)CO4)c12` (single isomer, unassigned) [Example 95], the “The remaining amount % (T = 60 min)” value in data set [1] was over 60%. The compound also gave an IC50 in data set [2] of under 100 nM. For `C#Cc1c(F)ccc2cc(O)cc(-c3nc4c5c(nc(OC[C@@H]6CCN(C)C6)nc5c3F)N(C(C)c3cccnc3N)[C@@H](C)CO4)c12` (single isomer, unassigned) [Example 101] the same measures were over 60% and under 100 nM. For `C#Cc1c(F)ccc2cc(O)cc(-c3nc4c5c(nc(O[C@H]6CCN(C)C6)nc5c3F)N(C(C)c3cccnc3N)[C@@H](C)CO4)c12` (single isomer, unassigned) [Example 103] the same measures were over 60% and under 100 nM. Consider `C#Cc1c(F)ccc2cc(O)cc(-c3nc4c5c(nc(OC[C@H](C)N(C)C)nc5c3F)N(C(C)c3cccnc3N)[C@@H](C)CO4)c12` (single isomer, unassigned) [Example 111], for which, in data set [2], the IC50 was under 100 nM. The “The remaining amount % (T = 60 min)” value in data set [4] is over 60%.

Compound `C#Cc1c(F)ccc2cc(O)cc(-c3nc4c5c(nc(OCCN6CCC6)nc5c3F)N(C(C)c3cccnc3N)[C@@H](C)CO4)c12` (single isomer, unassigned) [Example 134] had an IC50 in data set [2] of under 100 nM. In addition, in data set [4], the “The remaining amount % (T = 60 min)” value is given as over 60%. Take `C#Cc1c(F)ccc2cc(O)cc(-c3nc4c5c(nc(OCCCN6CCNCC6)nc5c3F)N(C(C)c3cccnc3N)[C@@H](C)CO4)c12` (single isomer, unassigned) [Example 140]: in data set [2], the IC50 was under 100 nM. The “The remaining amount % (T = 60 min)” value in data set [4] is listed as over 60%. Consider `C#Cc1c(F)ccc2cc(O)cc(-c3nc4c5c(nc(OC[C@@]67CCCN6C[C@H](F)C7)nc5c3F)NCCO4)c12` [Example 1], for which, in data set [5], the IC50 was at most 100 nM. Still for that read-out and setting: under `C#Cc1c(F)ccc2cc(O)cc(-c3nc4c5c(nc(OCC67CCCN6CC(F)C7)nc5c3F)N(CCN(C)C)CCO4)c12` (centres unmarked) [Example 2] stands at most 100 nM.

On to `C#Cc1c(F)ccc2cc(O)cc(-c3nc4c5c(nc(OCC67CCCN6CC(F)C7)nc5c3F)N(C(C)C)CCO4)c12` (centres unmarked) [Example 4], for which the half-inhibitory concentration (IC50) in data set [2] is 100 to 500 nM; in data set [5], at most 100 nM; in data set [6] it was 500 to 999 nM. With `C#Cc1c(F)ccc2cc(O)cc(-c3nc4c5c(nc(OC[C@@]67CCCN6C[C@H](F)C7)nc5c3F)N(CC3CC3)CCO4)c12` [Example 6], the IC50 in data set [5] was at most 100 nM.

In the case of `C#Cc1c(F)ccc2cc(O)cc(-c3nc4c5c(nc(OC[C@@]67CCCN6C[C@H](F)C7)nc5c3F)N(C3CCCC3)CCO4)c12` [Example 7], in data set [5], the 50% inhibitory concentration (IC50) was at most 100 nM. Regarding `C#Cc1c(F)ccc2cc(O)cc(-c3nc4c5c(nc(OC[C@@]67CCCN6C[C@H](F)C7)nc5c3F)N(CC(F)(F)F)CCO4)c12` [Example 8], the concentration for half-maximal inhibition (IC50) was 100 to 500 nM in data set [2], at most 100 nM in data set [5] and 500 to 999 nM in data set [6]. On to `C#Cc1c(F)ccc2cc(O)cc(-c3nc4c5c(nc(OCC67CCCN6CC(F)C7)nc5c3F)N(C)CCO4)c12` (centres unmarked) [Example 9], for which the half-maximal inhibitory concentration (IC50) in data set [5] was at most 100 nM. `C#Cc1c(F)ccc2cc(O)cc(-c3nc4c5c(nc(OCC67CCCN6CC(F)C7)nc5c3F)N(C3CCC(N)C3)CCO4)c12` (centres unmarked) [Example 10]: the IC50 in data set [5] lay within 500 to 999 nM. On the same count and under the same terms, under `C#Cc1c(F)ccc2cc(O)cc(-c3nc4c5c(nc(OCC67CCCN6CC(F)C7)nc5c3F)N(CC(C)N)CCO4)c12` (centres unmarked) [Example 13] stands at most 100 nM; under `C#Cc1c(F)ccc2cc(O)cc(-c3nc4c5c(nc(OCC67CCCN6CC(F)C7)nc5c3F)N(CC(C)N)CCO4)c12` (centres unmarked) [Example 14], at most 100 nM.

In the case of `C#Cc1c(F)ccc2cc(O)cc(-c3nc4c5c(nc(OCC67CCCN6CC(F)C7)nc5c3F)N(C3CCC(O)C3)CCO4)c12` (centres unmarked) [Example 15], the half-inhibitory concentration (IC50) in data set [5] is at most 100 nM. The same measure, in the same setting: under `C#Cc1c(F)ccc2cc(O)cc(-c3nc4c5c(nc(OC[C@@]67CCCN6C[C@H](F)C7)nc5c3F)N([C@H]3C[C@@H]3N)CCO4)c12` [Example 16] stands at most 100 nM; under `C#Cc1c(F)ccc2cc(O)cc(-c3nc4c5c(nc(OC[C@@]67CCCN6C[C@H](F)C7)nc5c3F)N(C3CC(N)C3)CCO4)c12` (some centres unmarked) [Example 17], at most 100 nM; under `C#Cc1c(F)ccc2cc(O)cc(-c3nc4c5c(nc(OCC67CCCN6CC(F)C7)nc5c3F)N(CC3(N(C)C)CC3)CCO4)c12` (centres unmarked) [Example 22], at most 100 nM. The same measure, in the same setting: under `C#Cc1c(F)ccc2cc(O)cc(-c3nc4c5c(nc(OCC67CCCN6CC(F)C7)nc5c3F)N(C3CCC(N(C)C)C3)CCO4)c12` (centres unmarked) [Example 23] stands 100 to 500 nM. Same read-out and setting: then `C#Cc1c(F)ccc2cc(O)cc(-c3nc4c5c(nc(OC[C@@]67CCCN6C[C@H](F)C7)nc5c3F)N(C[C@@H](C)N(C)C)CCO4)c12` [Example 24], with at most 100 nM; and `C#Cc1c(F)ccc2cc(O)cc(-c3nc4c5c(nc(OC[C@@]67CCCN6C[C@H](F)C7)nc5c3F)N(C[C@H](C)N(C)C)CCO4)c12` [Example 25], with at most 100 nM.

Take `C#Cc1c(F)ccc2cc(O)cc(-c3nc4c5c(nc(OC[C@@]67CCCN6C[C@H](F)C7)nc5c3F)N(C3CC(N(C)C)C3)CCO4)c12` (some centres unmarked) [Example 26]: the 50% inhibitory concentration (IC50) in data set [5] was in the range of 100 to 500 nM.

In general, IC50 refers to the concentration at which inhibition is half-maximal. By AUC(0-inf) is commonly meant total exposure, with the tail of the curve extrapolated. A low value points to less exposure. The term AUC(0-t) denotes the area under the concentration-time curve up to a stated or last time point. The low end stands for low exposure, the high end for high exposure. For orientation: Cmax means the maximum level reached in the sampled fluid or tissue. What is called Tmax is the time from dosing to the highest level. By half-life is commonly meant how long it takes for the measured level to halve. Low values mean fast loss, high ones slow loss.
